Measured values: patent US10919885B2, “Compounds and uses thereof” (Yumanity Therapeutics, Inc., priority 2018, dated 2021)
pIC50: −log10 of the molar value. Where a name gives a salt, the structure may show the parent alone.

Columns and labels:
[1] = molecular target: human SCD1 (Homo sapiens (Human), UniProt O00767); assay: Yeast growth assay, strain expressing human SCD1 as the sole desaturase (reduced growth as surrogate for SCD inhibition); assay type: cell-based; settings: yeast with OLE1 deleted expressing human SCD1 from a plasmid; growth read as OD600 after 40 h at 30° C.; top drug concentration 33.3 μM
Chain of human SCD1 (O00767 whole entry): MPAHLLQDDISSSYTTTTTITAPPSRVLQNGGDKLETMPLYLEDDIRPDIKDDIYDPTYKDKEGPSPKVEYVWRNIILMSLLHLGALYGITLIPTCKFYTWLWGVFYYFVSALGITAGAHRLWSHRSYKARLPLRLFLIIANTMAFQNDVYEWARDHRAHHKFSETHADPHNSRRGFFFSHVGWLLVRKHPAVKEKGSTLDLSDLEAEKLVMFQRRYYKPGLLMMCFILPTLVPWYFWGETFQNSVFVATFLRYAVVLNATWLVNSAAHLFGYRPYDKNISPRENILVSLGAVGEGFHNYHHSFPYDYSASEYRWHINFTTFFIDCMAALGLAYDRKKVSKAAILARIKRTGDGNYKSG
How it was run: (§1)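 Human SCD1 or SCD5 expressed from a plasmid in OLE1-deleted yeast as the sole desaturase. Cells washed free of Tween and fatty acids, grown with compound in SD-Ura glucose medium 40 h at 30 °C; growth measured as OD600, reduced growth taken as SCD inhibition.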

[2] = molecular target: human SCD5 (Homo sapiens (Human), UniProt Q86SK9); assay: Yeast growth assay, strain expressing human SCD5 as the sole desaturase (reduced growth as surrogate for SCD inhibition); assay type: cell-based; settings: yeast with OLE1 deleted expressing human SCD5 from a plasmid; growth read as OD600 after 40 h at 30° C.; top drug concentration 33.3 μM
Chain of human SCD5 (Q86SK9 whole entry): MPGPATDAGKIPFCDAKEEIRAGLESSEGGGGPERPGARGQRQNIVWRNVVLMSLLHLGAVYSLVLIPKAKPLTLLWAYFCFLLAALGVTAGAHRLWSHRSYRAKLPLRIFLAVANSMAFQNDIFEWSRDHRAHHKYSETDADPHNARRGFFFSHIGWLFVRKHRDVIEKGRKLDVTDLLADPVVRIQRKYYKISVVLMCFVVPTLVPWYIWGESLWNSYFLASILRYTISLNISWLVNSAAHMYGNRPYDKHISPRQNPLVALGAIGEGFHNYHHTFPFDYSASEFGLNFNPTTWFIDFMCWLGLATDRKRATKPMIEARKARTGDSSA
How it was run: as §1

| Structure (SMILES) | pIC50 [1] | pIC50 [2] |
| --- | --- | --- |
| C#Cc1cc(C(=O)Nc2cnn(Cc3cccc(F)c3)c2)no1 [Compound 154, 5-ethynyl-N-(1-(3-fluorobenzyl)-1H-pyrazol-4-yl)isoxazole-3-carboxamide] | 5.80 | 5.28 |
| O=C(c1cc(-c2cccnc2)on1)N1CCC(c2ccccc2)CC1 [Compound 315, (4-phenylpiperidin-1-yl)(5-(pyridin-3-yl)isoxazol-3-yl)methanone, trifluoroacetic acid salt] | 5.42 | 5.97 |
| N#Cc1ccc(-c2cc(C(=O)N3CCC(c4ccccc4)CC3)no2)cc1 [Compound 316, 4-(3-(4-phenylpiperidine-1-carbonyl)isoxazol-5-yl)benzonitrile] | < 4.35 | 6.15 |
| N#Cc1ccc(Cn2cc(NC(=O)c3cc(-c4ccccc4)on3)cn2)s1 [Compound 43] | < 4.35 | < 4.35 |
| CS(=O)(=O)CCC(c1ccccc1)n1cc(NC(=O)c2cc(-c3ccccc3)on2)cn1 (stereo not drawn) [Compound 75] | < 4.35 | < 4.35 |
| O=C(c1cc(-c2ccc3c(c2)OCO3)on1)N1CCCC1Cc1ccccc1 (stereo not drawn) [Compound 434] | < 4.35 | 5.33 |
| O=C(c1noc2cc(Br)ccc12)N1CCC[C@H]1c1ccccc1 [Compound 449] | < 4.35 | 4.38 |
| Cc1nnc(-c2cc(C(=O)Nc3cnn(Cc4cccc(F)c4)c3)no2)o1 [Compound 179] | < 4.35 | < 4.35 |
| N#Cc1cc(C(=O)Nc2cnn(Cc3cccc(F)c3)c2)no1 [Compound 169] | < 4.35 | < 4.35 |
| O=C(c1cc(-c2ccccc2)on1)N1CCC(c2ccccc2)CC1 [Compound 314, (5-phenylisoxazol-3-yl)(4-phenylpiperidin-1-yl)methanone] | < 4.35 | 5.79 |
| O=C(c1cc(-c2ccccc2)on1)N1CC2(CC(c3ccccc3)C2)C1 [Compound 227, (6-phenyl-2-azaspiro[3.3]heptan-2-yl)-(5-phenylisoxazol-3-yl)methanone] | < 4.35 | 5.05 |
| O=C(Nc1cn(Cc2ccccc2)nc1C(F)(F)F)c1cc(-c2ccccc2)on1 [Compound 82] | < 4.35 | < 4.35 |
| O=C(Nc1cnn(Cc2ccccc2)c1)c1cc(-c2c(F)cccc2F)on1 [Compound 195] | < 4.35 | < 4.35 |
| CN(C(=O)c1cc(-c2ccccc2)on1)c1cnn(Cc2cc(F)ccc2C(F)(F)F)c1 [Compound 76] | < 4.35 | < 4.35 |
| N#Cc1ccc(Cn2cc(NC(=O)c3cc(-c4ccccc4)on3)cn2)cc1 [Compound 42] | < 4.35 | < 4.35 |
| COc1ccc(C2CCCN2C(=O)c2cc(-c3ccc(C(F)(F)F)cc3)on2)cc1 (stereo not drawn) [Compound 381] | < 4.35 | < 4.35 |
| O=C(c1cc(-c2ccc3c(c2)OCO3)on1)N1CCCC1c1cccnc1 (stereo not drawn) [Compound 362] | < 4.35 | < 4.35 |
| Cc1nn(C)c2cc(-c3conc3CN3C(=O)OCC3c3ccccc3)ccc12 (stereo not drawn) [Compound 464] | < 4.35 | < 4.35 |
| Cc1cnc(-c2cc(C(=O)Nc3cnn(Cc4ccccc4)c3)no2)s1 [Compound 142] | < 4.35 | < 4.35 |
| Cc1cc(C2CCCN2C(=O)c2cc(-c3ccc4c(c3)OCO4)on2)no1 (stereo not drawn) [Compound 442] | < 4.35 | < 4.35 |
| O=C(c1cc(-c2ccccc2)on1)N1CCC(O)(c2ccccc2)CC1 [Compound 296] | < 4.35 | < 4.35 |
| O=C(c1cc(-c2ccccc2)on1)N1CCC(c2ccc(F)cc2)C1 (stereo not drawn) [Compound 334] | < 4.35 | < 4.35 |
| O=C(Nc1cnn(Cc2ccccc2)c1)c1cc(-c2cccc3c2cnn3C2COC2)on1 [Compound 97] | < 4.35 | < 4.35 |
| O=C(c1cc(-c2ccc3nccnc3c2)on1)N1CCC[C@H]1c1ccccc1 [Compound 450] | < 4.35 | < 4.35 |

Other lines, results leading:

| pIC50 [1] | pIC50 [2] | Structure (SMILES) |
| --- | --- | --- |
| 5.59 | 5.94 | O=C(c1cc(-c2ccco2)on1)N1CC(c2ccccc2)C1 [Compound 207, [5-(2-furyl)isoxazol-3-yl]-(3-phenylazetidin-1-yl)methanone] |
| < 4.35 | < 4.35 | N#Cc1cccc(Cn2cc(NC(=O)c3cc(-c4ccccc4)on3)cn2)c1 [Compound 132] |
| < 4.35 | < 4.35 | O=C(Nc1cnn(Cc2ccccc2)c1)c1cc(-c2ccccc2)no1 [Compound 123] |
| < 4.35 | < 4.35 | O=C(c1cc(-c2ccc3c(c2)OCO3)on1)N1CCCC1c1cccnn1 (stereo not drawn) [Compound 391] |
| 4.48 | 4.41 | Cc1nn(Cc2ccccc2)c(C)c1NC(=O)c1cc(-c2ccco2)on1 [Compound 2] |
| < 4.35 | 5.13 | O=C(c1cc(-c2ccccc2C(F)(F)F)on1)N1CCC(c2ccccc2)C1 (stereo not drawn) [Compound 346] |
| < 4.35 | < 4.35 | COc1ccc(C2CCCN2C(=O)c2cc(-c3ccc4c(c3)OCO4)on2)nc1 (stereo not drawn) [Compound 145] |
| < 4.35 | < 4.35 | O=C(c1cc(-c2ccc3c(c2)OCO3)on1)N1CCCC1c1cnccn1 (stereo not drawn) [Compound 418] |
| 6.23 | < 4.35 | O=C(Nc1cnn(Cc2cccc(F)c2)c1)c1cc(-c2cccnc2)on1 [Compound 55] |
| < 4.35 | < 4.35 | O=C(Nc1cnn(Cc2ccccc2)c1)c1cc(-c2ccc(F)cn2)on1 [Compound 137] |
| < 4.35 | 5.12 | O=C(c1noc2c1CCCC2)N1CC(c2ccccc2)C1 [Compound 252, 3-(3-phenylazetidine-1-carbonyl)-4,5,6,7-tetrahydro-1,2-benzoxazole] |
| < 4.35 | < 4.35 | O=C(c1cc(-c2ccco2)on1)N1CC(Nc2ccccc2)C1 [Compound 210] |
| < 4.35 | < 4.35 | COc1ccncc1Cn1cc(NC(=O)c2cc(-c3ccccc3F)on2)cn1 [Compound 173] |
| < 4.35 | < 4.35 | O=C(c1cc(-c2ccc3c(c2)OCO3)on1)N1CCCC1c1ncccc1F (stereo not drawn) [Compound 457] |
| 5.74 | < 4.35 | Cc1nn(Cc2ccccc2)cc1NC(=O)c1cc(-c2ccccc2)on1 [Compound 66] |
| 5.73 | 5.87 | O=C(c1cc(-c2ccccc2)on1)N1CC(CCl)(CNc2ccccc2)C1 [Compound 215] |
| 5.27 | 5.30 | O=C(Nc1cnn(Cc2ccccc2)c1)c1cc(-c2ccncc2Cl)on1 [Compound 134, N-(1-benzyl-1H-pyrazol-4-yl)-5-(3-chloropyridin-4-yl)isoxazole-3-carboxamide] |
| 5.38 | 5.28 | CNC(=O)c1cc(C(=O)N2CCC(c3ccccc3)C2)no1 (stereo not drawn) [Compound 347] |
| 5.34 | < 4.35 | N#Cc1cccc(-c2cc(C(=O)Nc3cnn(Cc4ccccc4)c3)no2)c1 [Compound 127] |
| 5.60 | 6.00 | O=C(c1cc(-c2ccncn2)on1)N1CC(Cc2ccccc2)C1 [Compound 258, (3-benzylazetidin-1-yl)(5-(pyrimidin-4-yl)isoxazol-3-yl)methanone] |
| 6.64 | 6.20 | O=C(c1cc(-c2ccco2)on1)N1CC(Cc2ccccc2)C1 [Compound 205, (3-benzylazetidin-1-yl)-[5-(2-furyl)isoxazol-3-yl]methanone] |
